Test results from patent US7250397B2, “Antiarrhythmic peptides” (Zealand Pharma A/S, priority 2000, dated 2007).
[ ]: non-standard residue; d: D form. The star is where a group is joined. Hyp = O=C(O)[C@@H]1C[C@@H](O)CN1; dHyp = O=C(O)[C@H]1C[C@H](O)CN1; T4C = not defined here; Acm = CC(=O)NC*; Sar = CNCC(=O)O

Tests used:
[1] = test system: calcium-induced arrythmias; assay: Calcium-induced arrhythmia model in mice; type: in vivo; settings: maximal effect; i.v.; time until 2nd degree AV-block during CaCl2 infusion relative to vehicle treated mice
Method: The antiarrhythmic effects of compounds of this invention were tested in an in vivo model of calcium-induced arrythmias according to the model of Lynch et al.^[37]. […]. Commercial solutions of hypnorm and midazolam were diluted 1:1 in distilled water and one part diluted Hypnorm® is mixed with one part diluted midazolam.
The anaesthesia was induced by s.c. administration in a dose of 0.05-0.075 μl/10 gram mouse. An i.v cannula was inserted into the tail vein. The lead II ECG signal was recorded continuously by positioning of a stainless steel ECG electrodes on the right forelimb and on the left hind limb. The ground electrode was placed on the right hind limb. The signal was amplified (x 5.000-10.000) and filtered (0.1-150 Hz) via a Hugo Sachs Electronic model 689 ECG module. The analogue signal was digitised via a 12 bit data acquisition board (Data Translation model DT321) and sampled at 1000 Hz using the Notocord HEM 3.1 software for Windows NT. After a 10-min equilibration period, the test sample of drug was injected into the tail vein. Mice pre-treated with vehicle were tested as a measure of the control level in untreated animals. The injection volume was 100 μl in all experiments. Infusion of CaCl2 (30 mg/ml, 0.1 ml/min≈100 mg/kg/min (calciumchlorid-2-hydrat, Riedel-de Häen, Germany)) was started 3 min after i.v. administration of drug or vehicle. The time lag to onset of 2nd degree AV-block was determined as the time from the start of CaCl2 infusion until the first arrhythmic event occured. An event of 2nd degree AV-block was defined as intermittent failure of the AV conduction characterised by a P-wave without the concomitant QRS complex.
Responses were expressed relative to the time until 2nd degree AV-block occurred in vehicle treated mice.

CHO cells = assay: In situ binding of [125I]AAP10 on intact CHO cells; settings: overnight at 4° C.
Method: CHO cells are seeded in 24-multi well dishes in a density of 7,900 cells/cm^2 (˜15,000 cells/well) and grown for 3 Days In Vitro (DIV) in 1 ml/well of F-12K Nutrient Mixture supplemented with […] (FCS) and 1000 units penicillin/1000 μg streptomycin (pen/strep) in an atmosphere of 5% CO2 and 100% humidity at 37° C. The cell density has at that time increased to 295,000 cells/cm^2 (152 pgprot/cell˜85 μgprot/well).
On the day of analysis cells are removed from the incubator and each well is washed twice with, depending on the experiment, either 2 ml pre-warmed (37° C.) or ice-cold (0° C.) D-PBS to remove serum. It is important to keep the period to a minimum during which cells are left without physiological solutions to avoid that they dry out during washing procedures. The cold washed cells are used directly for binding assays while the warm washed cells are used for experiments with glucose and oxygen deprivation.
Cells are incubated for 10 min in an N2-atmosphere in glucose free D-PBS (pH 7.2) pre-equilibrated with N2 for at least 10 min at 37° C. Control cells are incubated likewise for 10 min at 37° C., only, at normal atmospheric conditions and in D-PBS containing glucose (6 mM). […]
0.25 ml of 0.5% Triton-X-100 (v/v) is added to each well and cells left for at least 1 h to solubilize. […] The vials are counted in a γ-counter.

[2] = test system: phospho-inositol turnover in neonatal rat cardiomyocytes; assay: Phosphoinositol turnover in rat primary cardiomyocytes; type: cell-based; settings: for EC50: Rattus norvegicus, Cardiomyocyte
Method: Neonatal Wistar rats (1-2 days old) are used. Hank's calcium- and magnesium-free balanced salt solution, buffered with 10 mM HEPES is used for washing during cell separation procedures. The hearts are excised, the ventricles isolated and the tissue cut into small pieces. The myocardial cells are isolated by stepwise enzymatic degradation with collagenase 0.05%, as described by^[35]. After repeated rounds of centrifugation and washing, the precipitated cells are resuspended in culture medium M199 with Earle's salt, 10% NCS, penicillin (75 U/mL), and streptomycin (75 U/mL) and pre-plated in a Petri dish for 90 minutes. The non-adherent cells are collected in the culture medium and plated in multidishes at 2.5*10^5 cells/well. The cultures are kept in a water-saturated CO2-incubator at 37° C. The cardiomyocyte cultures are used for analyses after 6-7 days.
Cardiomyocyte cultures are incubated for 48 hours in culture medium containing […] myo-[2-^3H]inositol to label the inositol phospholipids. On the day of analysis the medium is replaced by a buffer solution containing lithium and incubated at 37° C., as described by Meier et al.^[36]. After at least five minutes this buffer is replaced by the same volume of buffer containing test compound and incubated for exactly 20 minutes. The reaction is stopped by rapid replacement of the buffer by ice cold 4% v/v perchloric acid (PCA) and incubation for at least 20 minutes at 0° C. The PCA-extract is neutralised and the [^3H]inositol phosphates are separated by anion-exchange chromatography using Amprep™ columns containing 100 mg SAX Quaternary amine. The [^3H]inositol mono-phosphates are eluted and radioactivity in the fraction measured by liquid scintillation counting.
Before adding test substances to the cultures, the cells are depleted of glucose and oxygen by incubating them in a N2-atmosphere in glucose-free lithium-buffer for 10 minutes at 37° C. Control cells are incubated likewise only at normal atmospheric conditions and in a buffer containing glucose.

[3] = test system: membranes from rabbit heart; settings: read-out: value given for AAP10 by Dhein et al.; cited from earlier work
[4] = test system: guinea pig papillary muscle; settings: 1 μM; normoxic conditions; cited from earlier work

H-C(Acm)GAG[Hyp]PYC(Acm)-NH2 [Compound 16]
In vivo activity [1]: + (15-29% increase in time until arrhythmia)

ASAL(mono-iodo)-Pro-Hyp-Gly-Ala-Gly-NH2 [Compound 32]
In vivo activity [1]: +++ (>60% increase in time until arrhythmia)
IC50 (CHO cells): 0.5 nM

3-(4-hydroxyphenyl)propionyl-Pro-Hyp-Gly-Ala-Gly-OH [Compound CE3, reference compound]
In vivo activity [1]: ++ (30-50% increase in time until arrhythmia)

Ac-D-Tyr(3,5-di-I)-D-Pro-D-Hyp-Gly-D-Ala-Gly-NH2 [Compound 24]
IC50 (CHO cells): 65 nM

NC[C@H](O)c1ccc(O)c(O)c1 [Noradrenaline]
EC50 ([2]; atmosphere of N2 and depleted of glucose): 303 nM
EC50 ([2]; normal atmospheric and nutritional conditions): 203 nM

Cyclo(Tyr-Pro-4Hyp-Gly-Ala-Gly-Asn) [Compound 3]
In vivo activity [1]: +++ (>60% increase in time until arrhythmia)

Ac-Tyr-Pro-4Hyp-Gly-Ala-Gly-OH (Ac-YP[Hyp]GAG-OH; SMILES CC(=O)N[C@@H](Cc1ccc(O)cc1)C(=O)N1CCC[C@H]1C(=O)N1C[C@H](O)C[C@H]1C(=O)NCC(=O)N[C@@H](C)C(=O)NCC(=O)O) [Compound 1]
In vivo activity [1]: + (15-29% increase in time until arrhythmia)

H-GAG[Hyp]PY-NH2 [Compound CE2]
In vivo activity [1]: +++ (>60% increase in time until arrhythmia)
EC50 relative to the EC50 of Compound 2 ([2]; during normoxia): 200 fold
EC50 relative to the EC50 of Compound 2 ([2]; metabolic stress induced by anoxia and glucose deprivation): 10 fold
IC50 [3]: 0.2 nM
decrease of stimulus-response-interval [4]: about 10%

cyclo(-Gly-Ala-Gly-Hyp-Pro-Tyr-Gln-) (cyclo(GAG[Hyp]PYQ); SMILES C[C@@H]1NC(=O)CNC(=O)[C@H](CCC(N)=O)NC(=O)[C@H](Cc2ccc(O)cc2)NC(=O)[C@@H]2CCCN2C(=O)[C@@H]2C[C@@H](O)CN2C(=O)CNC1=O) [Compound 35]
In vivo activity [1]: ++ (30-50% increase in time until arrhythmia)

H-[Sar]A[Sar][Hyp]PY-NH2 [Compound 29]
In vivo activity [1]: + (15-29% increase in time until arrhythmia)

H-GAG[dHyp][dP]Y-NH2 [Compound 10]
In vivo activity [1]: +++ (>60% increase in time until arrhythmia)

H-GAG[dHyp]PY-NH2 [Compound 5]
In vivo activity [1]: ++ (30-50% increase in time until arrhythmia)

H-Gly-Ala-Gly-Asn-Tyr-NH2 (H-GAGNY-NH2) [Compound 39]
In vivo activity [1]: +++ (>60% increase in time until arrhythmia)

H-GP[Hyp]GAG-OH [Compound CE1, reference compound]
In vivo activity [1]: ++ (30-50% increase in time until arrhythmia)

H-Gly-Asn-Tyr-NH2 [Compound 41]
In vivo activity [1]: ++ (30-50% increase in time until arrhythmia)

H-Hyp-Pro-Tyr-Asn-Gly-Ala-Gly-NH2 (H-[Hyp]PYNGAG-NH2; SMILES C[C@H](NC(=O)CNC(=O)[C@H](CC(N)=O)NC(=O)[C@H](Cc1ccc(O)cc1)NC(=O)[C@@H]1CCCN1C(=O)[C@@H]1C[C@@H](O)CN1)C(=O)NCC(N)=O) [Compound 28]
In vivo activity [1]: (+) (≦15% increase in time until arrythmia)

H-GAG[dHyp]AY-NH2 [Compound 9]
In vivo activity [1]: + (15-29% increase in time until arrhythmia)

cyclo(-Gly-Ala-Gly-Hyp-Pro-Tyr-Asn-) (cyclo(GAG[Hyp]PYN)) [Compound 36]
In vivo activity [1]: +++ (>60% increase in time until arrhythmia)

H-Gly-Ala-Gly-T4C-Pro-Tyr-NH2 (H-GAG[T4C]PY-NH2; reading uncertain; also: printed as H-Gly-Ala-Gly-T4C-Pro-Tyr-NH2) [Compound 12]
In vivo activity [1]: ++ (30-50% increase in time until arrhythmia)

H-Gly-Ala-Gly-PC-Pro-Tyr-NH2 (GAGPY; PC residue; C-terminal amide; Description of Artificial Sequence: Synthetic antiarrythmic peptide; PC between positions 3 and 4) [Compound 14]
In vivo activity [1]: + (15-29% increase in time until arrhythmia)

H-Gly-Ala-Sar-Hyp-Pro-Tyr-NH2 (H-GA[Sar][Hyp]PY-NH2; SMILES C[C@H](NC(=O)CN)C(=O)N(C)CC(=O)N1C[C@H](O)C[C@H]1C(=O)N1CCC[C@H]1C(=O)N[C@@H](Cc1ccc(O)cc1)C(N)=O) [Compound 30]
In vivo activity [1]: ++ (30-50% increase in time until arrhythmia)

Ac-Gly-Asn-Tyr-NH2 [Compound 40]
In vivo activity [1]: ++ (30-50% increase in time until arrhythmia)
